Results from BigSolDB 2.1.

CC[C@@]1(O)C(=O)OCc2c1cc1n(c2=O)Cc2cc3ccccc3nc2-1
Conditions	solubility (mole fraction)
in chloroform, 275.76 K	0.000222
in chloroform, 279.07 K	0.000246
in chloroform, 282.38 K	0.000272
in chloroform, 285.02 K	0.000288
in chloroform, 287.55 K	0.000308
in chloroform, 291.19 K	0.000332
in chloroform, 294.18 K	0.000354
in chloroform, 297.25 K	0.000375
in chloroform, 300.57 K	0.000404
in chloroform, 303.1 K	0.000421
in chloroform, 305.96 K	0.000441
in chloroform, 308.51 K	0.000465
in chloroform, 311.59 K	0.000489
in chloroform, 315.12 K	0.000513
in chloroform, 318.31 K	0.000544
in chloroform, 322.39 K	0.000575
in chloroform, 326.25 K	0.000613
in ethanol, 277.98 K	9.03e-06
in ethanol, 281.62 K	1.08e-05
in ethanol, 284.67 K	1.25e-05
in ethanol, 287.95 K	1.39e-05
in ethanol, 291 K	1.6e-05
in ethanol, 294.63 K	1.78e-05
in ethanol, 297.81 K	2.01e-05
in ethanol, 301.09 K	2.24e-05
in ethanol, 304.26 K	2.46e-05
in ethanol, 307.54 K	2.76e-05
in ethanol, 310.47 K	3.06e-05
in ethanol, 313.63 K	3.33e-05
in ethanol, 316.57 K	3.68e-05
in ethanol, 319.26 K	4.01e-05
in ethanol, 321.7 K	4.31e-05
in ethanol, 324.43 K	4.64e-05
in ethanol, 326.3 K	4.91e-05
in methanol, 277.52 K	1.27e-05
in methanol, 280.45 K	1.43e-05
in methanol, 283.37 K	1.57e-05
in methanol, 286.2 K	1.72e-05
in methanol, 289.49 K	1.95e-05
in methanol, 293.24 K	2.2e-05
in methanol, 296.6 K	2.49e-05
in methanol, 299.68 K	2.74e-05
in methanol, 302.78 K	3.03e-05
in methanol, 305.61 K	3.35e-05
in methanol, 308.45 K	3.66e-05
in methanol, 311.02 K	4e-05
in methanol, 313.77 K	4.37e-05
in methanol, 316.53 K	4.78e-05
in methanol, 319.02 K	5.2e-05
in methanol, 321.42 K	5.59e-05
in methanol, 323.48 K	5.95e-05
